Assay results from patent US10597388B2, “Pyridazinone herbicides” (FMC CORPORATION, priority 2014, dated 2020).

Experiments:
Assay in all cases: Test D controlled growth environment herbicide test, pre- and postemergence
Assay type in all cases: in vivo
[1] = tested on: buckwheat, wild (wild buckwheat, Polygonum convolvulus)
Summary of the method: (§1)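 Pre-emergence: seeds sown in silt loam soil were sprayed with compound in a non-phytotoxic solvent mix containing surfactant. Post-emergence: plants at 2 to 18 cm (1- to 4-leaf stage) in peat moss/vermiculite medium got the same formulation. Visual 0–100 rating versus controls after 14 to 21 d.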

[2] = tested on: bromegrass, downy (downy bromegrass, Bromus tectorum)
Summary of the method: as §1

[3] = tested on: lambsquarters (Chenopodium album)
Summary of the method: as §1

[4] = tested on: pigweed (Amaranthus retroflexus)
Summary of the method: as §1

[5] = tested on: chamomile (scentless chamomile, Matricaria inodora)
Summary of the method: as §1

[6] = tested on: Russian thistle (Salsola kali)
Summary of the method: as §1

[7] = tested on: speedwell (bird's-eye speedwell, Veronica persica)
Summary of the method: as §1

[8] = tested on: kochia (Kochia scoparia)
Summary of the method: as §1

[9] = tested on: field violet (Viola arvensis)
Summary of the method: as §1

[10] = tested on: oat, wild (wild oat, Avena fatua)
Summary of the method: as §1

[11] = tested on: blackgrass (Alopecurus myosuroides)
Summary of the method: as §1

[12] = tested on: galium (catchweed bedstraw, Galium aparine)
Summary of the method: as §1

[13] = tested on: oilseed rape (Brassica napus)
Summary of the method: as §1

[14] = Postemergence, 31 g ai/ha, scale 0 to 100 (0 no effect, 100 complete control)
[15] = Postemergence, 125 g ai/ha, visual rating on scale 0 (no effect) to 100 (complete control), 14 to 21 d
[16] = Postemergence, 250 g ai/ha, scale 0 to 100 (0 no effect, 100 complete control)
[17] = Preemergence, 62 g ai/ha, scale 0 to 100 (0 no effect, 100 complete control)
[18] = Preemergence, 125 g ai/ha, scale 0 to 100 (0 no effect, 100 complete control)
[19] = Preemergence, 250 g ai/ha, scale 0 to 100 (0 no effect, 100 complete control)
[20] = postemergence, 62 g ai/ha, scale 0 to 100, 0 no effect, 100 complete control

COC(=O)Oc1c(C)nn(C)c(=O)c1-c1c(C)sc2c(C)cc(C)cc12 [Compound 81]
Buckwheat, Wild plant response rating [1, 14]: 100 | Plant response rating, Buckwheat, Wild [1, 15]: 100 | Plant response rating, Buckwheat, Wild [1, 16]: 100 | Plant response rating (scale of 0 to 100), Buckwheat, Wild ([1]; Preemergence, 31 g ai/ha): 15 | Plant response rating, Buckwheat, Wild [1, 17]: 15 | Plant response rating, Buckwheat, Wild [1, 18]: 0 | Plant response rating, Buckwheat, Wild [1, 19]: 15 | Plant response rating, Buckwheat, Wild [1, 20]: 100 | Bromegrass, Downy plant response rating [2, 14]: 15 | Plant response rating, Bromegrass, Downy [2, 15]: 65 | Plant response rating, Bromegrass, Downy [2, 16]: 75 | Plant response rating (scale of 0 to 100), Bromegrass, Downy ([2]; Preemergence, 31 g ai/ha): 20 | Plant response rating, Bromegrass, Downy [2, 17]: 45 | Plant response rating, Bromegrass, Downy [2, 18]: 15 | Plant response rating, Bromegrass, Downy [2, 19]: 75 | Plant response rating, Bromegrass, Downy [2, 20]: 35 | Lambsquarters plant response rating [3, 14]: 95 | Plant response rating, Lambsquarters [3, 15]: 100 | Plant response rating, Lambsquarters [3, 16]: 100 | Plant response rating (scale of 0 to 100), Lambsquarters ([3]; Preemergence, 31 g ai/ha): 55 | Plant response rating, Lambsquarters [3, 17]: 95 | Plant response rating, Lambsquarters [3, 18]: 70 | Plant response rating, Lambsquarters [3, 19]: 95 | Plant response rating, Lambsquarters [3, 20]: 100 | Pigweed plant response rating [4, 14]: 100 | Plant response rating, Pigweed [4, 15]: 100 | Plant response rating, Pigweed [4, 16]: 100 | Plant response rating (scale of 0 to 100), Pigweed ([4]; Preemergence, 31 g ai/ha): 95 | Plant response rating, Pigweed [4, 17]: 100 | Plant response rating, Pigweed [4, 18]: 100 | Plant response rating, Pigweed [4, 19]: 100 | Plant response rating, Pigweed [4, 20]: 100 | Chamomile plant response rating [5, 14]: 100 | Plant response rating, Chamomile [5, 15]: 100 | Plant response rating, Chamomile [5, 16]: 100 | Plant response rating, Chamomile [5, 20]: 100 | Russian Thistle plant response rating [6, 14]: 75 | Plant response rating, Russian Thistle [6, 15]: 90 | Plant response rating, Russian Thistle [6, 16]: 90 | Plant response rating (scale of 0 to 100), Russian Thistle ([6]; Preemergence, 31 g ai/ha): 0 | Plant response rating, Russian Thistle [6, 17]: 0 | Plant response rating, Russian Thistle [6, 18]: 15 | Plant response rating, Russian Thistle [6, 19]: 35 | Plant response rating, Russian Thistle [6, 20]: 85 | Speedwell plant response rating [7, 14]: 75 | Plant response rating, Speedwell [7, 15]: 95 | Plant response rating, Speedwell [7, 16]: 100 | Plant response rating (scale of 0 to 100), Speedwell ([7]; Preemergence, 31 g ai/ha): 55 | Plant response rating, Speedwell [7, 17]: 60 | Plant response rating, Speedwell [7, 18]: 100 | Plant response rating, Speedwell [7, 19]: 100 | Plant response rating, Speedwell [7, 20]: 80 | Kochia plant response rating [8, 14]: 60 | Plant response rating, Kochia [8, 15]: 90 | Plant response rating, Kochia [8, 16]: 95 | Plant response rating (scale of 0 to 100), Kochia ([8]; Preemergence, 31 g ai/ha): 0 | Plant response rating, Kochia [8, 17]: 0 | Plant response rating, Kochia [8, 18]: 25 | Plant response rating, Kochia [8, 19]: 15 | Plant response rating, Kochia [8, 20]: 85 | Field Violet plant response rating [9, 14]: 75 | Plant response rating, Field Violet [9, 15]: 100 | Plant response rating, Field Violet [9, 16]: 100 | Plant response rating (scale of 0 to 100), Field Violet ([9]; Preemergence, 31 g ai/ha): 75 | Plant response rating, Field Violet [9, 17]: 80 | Plant response rating, Field Violet [9, 18]: 100 | Plant response rating, Field Violet [9, 19]: 95 | Plant response rating, Field Violet [9, 20]: 85 | Oat, Wild plant response rating [10, 14]: 85 | Plant response rating, Oat, Wild [10, 15]: 95 | Plant response rating, Oat, Wild [10, 16]: 98 | Plant response rating (scale of 0 to 100), Oat, Wild ([10]; Preemergence, 31 g ai/ha): 85 | Plant response rating, Oat, Wild [10, 17]: 85 | Plant response rating, Oat, Wild [10, 18]: 85 | Plant response rating, Oat, Wild [10, 19]: 95 | Plant response rating, Oat, Wild [10, 20]: 90 | Blackgrass plant response rating [11, 14]: 65 | Plant response rating, Blackgrass [11, 15]: 80 | Plant response rating, Blackgrass [11, 16]: 85 | Plant response rating (scale of 0 to 100), Blackgrass ([11]; Preemergence, 31 g ai/ha): 55 | Plant response rating, Blackgrass [11, 17]: 60 | Plant response rating, Blackgrass [11, 18]: 70 | Plant response rating, Blackgrass [11, 19]: 85 | Plant response rating, Blackgrass [11, 20]: 75 | Galium plant response rating [12, 14]: 100 | Plant response rating, Galium [12, 15]: 100 | Plant response rating, Galium [12, 16]: 100 | Plant response rating (scale of 0 to 100), Galium ([12]; Preemergence, 31 g ai/ha): 25 | Plant response rating, Galium [12, 17]: 65 | Plant response rating, Galium [12, 18]: 85 | Plant response rating, Galium [12, 19]: 95 | Plant response rating, Galium [12, 20]: 100 | Oilseed Rape plant response rating [13, 14]: 70 | Plant response rating, Oilseed Rape [13, 15]: 75 | Plant response rating, Oilseed Rape [13, 16]: 85 | Plant response rating (scale of 0 to 100), Oilseed Rape ([13]; Preemergence, 31 g ai/ha): 0 | Plant response rating, Oilseed Rape [13, 17]: 0 | Plant response rating, Oilseed Rape [13, 18]: 50 | Plant response rating, Oilseed Rape [13, 19]: 100 | Plant response rating, Oilseed Rape [13, 20]: 70
